Measured values taken from patent US8586768B2, “Design, synthesis and functional characterization of rottlerin analogs” (priority 2009, dated 2013).

How the values were obtained:
[1] = molecular target: PKCδ (Homo sapiens, UniProt Q05655); test: In vitro 32P phosphorylation kinase assay with histone substrate; format: biochemical; conditions: 0.3-10 μM, pure recombinant PKCδ protein
Protocol: Since PK analogs are directed against PKCδ, it was first determined whether the analogs would inhibit PKCδ enzyme activity in kinase assays. The ability of lead PK analogs to inhibit purified human recombinant PKCδ enzyme activity by 32P phosphorylation kinase assay with histone as the substrate was measured. The in vitro kinase assays were performed with human recombinant PKCδ in the presence or absence of 0.3-10 μM lead PK analogs in the presence histone substrate, [^32P]-ATP and phospholipids. The extent of histone phosphorylation was determined after separation in SDS-PAGE and by phosphoimaging. IC50 was obtained using sigmoidal dose-response curve and non-linear regressional analysis using Graphpad Prism software.
In vitro kinase assays were performed with human recombinant PKCδ in the presence or absence of 0.3-10 μM lead PK analogs in the presence histone substrate, [^32P]-ATP and phospholipids. The extent of histone phosphorylation was determined after separation in SDS-PAGE and by phosphoimaging.

[2] = test system: caspase-3 activity in N27 cells; test: MPP+-induced caspase-3 activity assay in N27 cells; format: cell-based, rat; conditions: for inhibition of MPP+-induced caspase-3 activity: MPP+ 24 hr, dose range 1-30 μM; for blockage of MPP+-induced caspase-3 activity: co-treated with 0.3, 1, 3 and 10 μM
Protocol: To determine whether PK analogs are neuroprotective against MPP+-induced increases in caspase-3 and DNA fragmentation, their effects on MPP+-induced increases in caspase-3 activity and DNA fragmentation, markers of apoptotic cell death, were examined.
The second generation PK analogs were further tested to determine whether the analogs are neuroprotective against MPP+-induced apoptotic cell death. The effects on MPP+-induced increases in caspase-3 enzymatic activity were analyzed, a marker of apoptotic cell death. […] At the end of the treatment, cytotoxicity was measured using the caspase-3 assay in a 96-well fluorescence microplate reader.
The third generation PK analogs were further tested to determine whether the analogs are neuroprotective against MPP+-induced apoptotic cell death. The effects on MPP+-induced increases in caspase-3 enzymatic activity were examined, a marker of apoptotic cell death. N27 cells were exposed to 300 μM MPP+ for 24 hr in the presence or absence of three different PK compounds in the dose range of 0.3-10 μM. At the end of the treatment, cytotoxicity was measured using the caspase-3 assay in a 96-well fluorescence microplate reader.
(§1) Rat mesencephalic dopaminergic clonal cells (N27) were used and maintained in RPMI 1640 complete medium supplemented with 10% Fetal Bovine Serum, 1% […] and 1% Penicillin/Streptomycin in a 37° C. incubator with 5% CO2. After 4-6 days in culture, the cells were used for the experiments.
(§2) N27 cells were exposed to MPP^+ for 24 hr in the presence or absence of PK analogs in the dose range of 1-30 μM.

[3] = test system: N27 cells; conditions: for toxicity of the analog at higher doses: 30 μM; for neuroprotection compared with rottlerin: caspase-3 activity and cytotoxic cell death; for blockage of MPP+-induced cytotoxicity: co-treated with 0.3, 1 and 3 μM
Protocol: (§3) At the end of the treatment, cytotoxicity was measured using the Sytox cell death assay in a 96-well fluorescence microplate reader.
A second generation of rottlerin analogs was further utilized for neuroprotection studies, as shown as PK201-203 in FIG. 2.
as §3
The analogs were tested in an N27 dopaminergic cell model for their neuroprotective properties. […] At the end of the treatment, cytotoxicity was measured using the Sytox cell death assay in a 96-well fluorescence microplate reader.
as §1, §2

[4] = Activity of simple rottlerin analogs compared with rottlerin (test not named)
Protocol: Design and Synthesis of Novel Rottlerin Analogs. Since Rottlerin has proven to be a difficult target to make synthetically, analogs have been developed and tested in an attempt to localize the region of activity and improve that activity. Initially, simple analogs of Rottlerin itself, obtained from CalBioChem (La Jolla, Calif., Cat #557370), were prepared and analyzed. Two compounds gave important results, one representing a simplified methylene linkage present in the parent compound (PK103), and the other (PK203) came from a simple bromination of natural Rottlerin.

PKCδ, sequence (Q05655 whole entry): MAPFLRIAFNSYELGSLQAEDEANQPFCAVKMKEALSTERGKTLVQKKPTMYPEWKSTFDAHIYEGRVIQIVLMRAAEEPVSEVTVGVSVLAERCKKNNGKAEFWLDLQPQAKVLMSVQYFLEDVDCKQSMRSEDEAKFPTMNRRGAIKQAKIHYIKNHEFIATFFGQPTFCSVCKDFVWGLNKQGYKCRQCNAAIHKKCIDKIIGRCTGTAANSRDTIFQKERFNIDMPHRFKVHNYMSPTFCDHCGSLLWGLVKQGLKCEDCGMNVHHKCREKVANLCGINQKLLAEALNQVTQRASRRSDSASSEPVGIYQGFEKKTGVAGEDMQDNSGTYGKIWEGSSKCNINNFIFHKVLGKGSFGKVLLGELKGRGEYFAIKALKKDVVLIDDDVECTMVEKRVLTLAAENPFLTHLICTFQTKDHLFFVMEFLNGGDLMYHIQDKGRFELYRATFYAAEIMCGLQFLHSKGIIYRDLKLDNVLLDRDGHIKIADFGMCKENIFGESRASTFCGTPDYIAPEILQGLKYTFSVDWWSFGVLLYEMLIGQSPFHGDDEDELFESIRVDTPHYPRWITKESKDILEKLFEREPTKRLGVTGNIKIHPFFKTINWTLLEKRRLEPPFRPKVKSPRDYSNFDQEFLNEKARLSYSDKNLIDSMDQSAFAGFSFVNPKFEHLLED

Compound | inhibition of PKCδ kinase activity [1] | inhibition of MPP+-induced caspase-3 activity [2] | toxicity of the analog at higher doses [3] | neuroprotection compared with rottlerin ([3]; MPP+ 24 hr) | inhibition of MPP+-induced cytotoxic cell death ([3]; MPP+ 24 hr, dose range 1-30 μM) | blockage of MPP+-induced caspase-3 activity ([2]; 300 μM MPP+ 24 hr) | blockage of MPP+-induced cytotoxicity ([3]; 300 μM MPP+ 24 hr) | activity compared with Rottlerin [4] | relative protection against MPP+-induced caspase-3 activity within the generation ([2]; 300 μM MPP+ 24 hr, 0.3-10 μM) | relative potency against MPP+-induced cytotoxic cell death within the generation ([3]; 300 μM MPP+ 24 hr)
COc1cc(OC)c(C(=O)/C=C/c2ccccc2)c2c1C=CC(C)(C)O2 [PK111] | inhibited | almost completely inhibited | toxic | better neuroprotection than the parent compound rottlerin | almost completely inhibited | – | – | – | – | –
COc1cc2c(c3c1C=CC(C)(C)O3)C(=O)CC(c1ccccc1)O2 (stereo not drawn) [PK112] | inhibited | almost completely inhibited | toxic | better neuroprotection than the parent compound rottlerin | – | – | – | – | – | –
CC(=O)c1c(O)c(C)c(O)c(Cc2c(O)c3c(c(C(=O)/C=C/c4ccccc4)c2O)OC(C)(C)CC3)c1O [PK201] | – | – | – | – | – | dose-dependent blockage | significant blockage | – | – | –
CC(=O)c1c(O)c(C)c(O)c(Cc2c(O)c(C(=O)/C=C/c3ccccc3)c3c(c2O)C(Br)C(Br)C(C)(C)O3)c1O (stereo not drawn) [PK203] | – | – | – | – | – | dose-dependent blockage | significant blockage | less activity than Rottlerin | – | –
CC(=O)c1c(O)cc(O)cc1O [PK303, acytyl phloroglucinol] | – | – | – | – | – | significant blockage | significant blockage | – | more effectively protect | more potent inhibitors than PK301
